Here are results for nine compounds from ChEMBL document CHEMBL1201862, “PubChem BioAssay data set” (2004).

Common to all, as to experiment: growth of human tumour cells (NCI), 48 h
Assay [1] deals with SNB-75.
The test system of assay [2] is RPMI-8226.
The test system of assay [3] is HL-60.
Assay [4] has as its system A498.
For assay [5], the system named is RXF 393.
For assay [6], the system named is IGROV-1.
For assay [7], the system named is 786-0.
Assay [8] deals with SK-MEL-28.
Assay [9] relates to KM-20L2.
Assay [10] relates to SK-MEL-2.
Assay [11] deals with BT-549.
The test system of assay [12] is MDA-N.
In assay [13] the test system is MDA-MB-231.
The test system of assay [14] is Hs-578T.
Assay [15] relates to PC-3.
Assay [16] relates to SR.
Assay [17] has as its system MDA-MB-435.
The subject of assay [18] is HOP-92.
Assay [19] concerns MCF7.
In assay [20] the test system is NCI/ADR-RES.

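Following 48 hours of exposure in 96-well plates, responses at five concentrations were used to interpolate endpoints linearly. GI50 marks 50% less growth.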 Calls of active or inactive are those of the source. Rule as the data show it: active = GI50 up to about 1.1 µM and inactive = higher.

Turning to `O=C1C[C@@H]2[C@@H](C=CC23CCCC3)N1O`, the GI50 in [1], in assay [2], in [3], in assay [4], in assay [5] and in assay [6] was > 100 µM (inactive) throughout. In addition, the GI50 in assay [7], in assay [8], in assay [9] and in assay [10] was > 100 µM (inactive) in each case.

`Cc1ccc(-c2n[nH]c(=O)n2/N=C\c2ccccc2)cc1`: the GI50 in [1] was 28.6 µM (inactive); in [11] it was 10.1 µM (inactive); in [12] it was 51.1 µM (inactive); in assay [13], 60.5 µM (inactive); in assay [2], > 86.3 µM (inactive); in assay [3] it was 70.1 µM (inactive). Also, the GI50 in assay [14] was 23.7 µM (inactive); in assay [4], 36.6 µM (inactive); in [5], 24.7 µM (inactive); in [6], 47.5 µM (inactive); in assay [15], > 63.2 µM (inactive); in [16], > 72.6 µM (inactive). The GI50 in assay [17] is > 100 µM (inactive); in assay [7], 60.3 µM (inactive); in [8], > 72.8 µM (inactive); in [18], 21 µM (inactive); in [19] it was 56200 nM (inactive); in [20] it was 25.2 µM (inactive). The GI50 in assay [10] was 33.8 µM (inactive).

`COC(=O)C1=C(C(=O)OC)C23CC1C1C(C(=O)OC)=C(C(=O)OC)C12C1C=CC3C2C(=O)OC(=O)C21` (configuration not stated): the GI50 is 7.1 µM (inactive) in assay [1]; 32.3 µM (inactive) in [2]; 40.1 µM (inactive) in [3]; 38.9 µM (inactive) in [5]; 59 µM (inactive) in assay [6]; 94.2 µM (inactive) in assay [7]. The GI50 in assay [8] is 65.5 µM (inactive); in assay [18], 25.3 µM (inactive); in assay [9], > 100 µM (inactive); in assay [10], 35 µM (inactive).

On to `O=S(O)CCCCCSSSCCCCCS(=O)O`, for which the GI50 was 24.6 µM (inactive) in [1]; 24.7 µM (inactive) in assay [3]; > 100 µM (inactive) in assay [4]; 14.4 µM (inactive) in assay [5]; 3.48 µM (inactive) in assay [16]; 39.8 µM (inactive) in assay [8]. Also, the GI50 in assay [9] was > 100 µM (inactive); in assay [10], 25.9 µM (inactive).

Take `CC(C)OP(=O)(OC(C)C)/C(=N/Nc1ccc([N+](=O)[O-])cc1)Nc1ccc(N/C(=N\Nc2ccc([N+](=O)[O-])cc2)P(=O)(OC(C)C)OC(C)C)cc1`: the GI50 was 14.2 µM (inactive) in [1]; 5.24 µM (inactive) in [2]; 20.9 µM (inactive) in [3]; 16.4 µM (inactive) in assay [4]; 4.43 µM (inactive) in assay [6]; 5.66 µM (inactive) in [16]. In addition, the GI50 was > 100 µM (inactive) in assay [8], > 100 µM (inactive) in [18], 14.9 µM (inactive) in assay [9] and 48 µM (inactive) in [10].

As to `C[C@@]12[Se]c3ccccc3[C@]1(C)[Se]c1ccccc12`, the GI50 in assay [1] is 2.57 µM (inactive); in assay [2], 8.85 µM (inactive); in [3], 2.74 µM (inactive); in assay [5] it was 2.75 µM (inactive); in assay [7], 4.85 µM (inactive); in assay [18] it was 4.79 µM (inactive). The GI50 in assay [9] is > 100 µM (inactive); in [10], 3.85 µM (inactive).

In the case of `C=C1C(=O)O[C@@H]2[C@H](O)[C@@H](C)[C@@H]3C=CC(=O)[C@@]3(C)[C@H](OC(=O)C=C(C)C)[C@H]12`, the GI50 is 1.04 µM (active) in assay [1]; 0.294 µM (active) in assay [2]; 0.2 µM (active) in [3]; 2.21 µM (inactive) in assay [4]; 1.96 µM (inactive) in assay [6]; 0.514 µM (active) in [8]. In addition, the GI50 was 0.944 µM (active) in assay [18]; 560 nM (active) in assay [19]; 1.66 µM (inactive) in assay [9]; 0.536 µM (active) in assay [20]; 1.32 µM (inactive) in assay [10].

As for `CCCCCCCCCCCCCCCCCCOP(=O)([O-])OCC[N+](C)(C)C` [OCTADECYLPHOSPHONOCHOLINE], the GI50 in assay [1] was 0.836 µM (active); in [11], 1.22 µM (inactive); in assay [13] it was 0.0447 µM (active); in assay [2], 0.276 µM (active); in assay [3], 0.317 µM (active); in [4], 8.41 µM (inactive). Further, the GI50 in assay [5] was 2.45 µM (inactive); in assay [6], 0.614 µM (active); in [8], 8.22 µM (inactive); in assay [18], 0.33 µM (active); in assay [19] it was 382 nM (active); in assay [9], 3.38 µM (inactive). Moreover, the GI50 is 1.32 µM (inactive) in [20] and 0.998 µM (active) in assay [10].

For the compound `Oc1c(C(Nc2cccc3cccnc23)c2ccccc2)ccc2cccnc12` (configuration not stated), the GI50 in assay [2] was 3.88 µM (inactive); in [3], 2.2 µM (inactive); in assay [4] it was 22.6 µM (inactive); in assay [6] it was 8.04 µM (inactive); in assay [16], 2.61 µM (inactive); in assay [7], 4.07 µM (inactive). Moreover, the GI50 in assay [9] was 3.77 µM (inactive).
